For orientation: EC50 means the midpoint of the concentration-response curve.

In one assay the test system is Human AMPA receptors. The assay can be described thus: AMPA-evoked currents, Xenopus laevis oocytes injected with human hippocampal poly(A+) mRNA. In kind it is cell-based. To be noted: for EC2X: concentration giving a two-fold increase in current amplitude; for EC2X / EC50: geometric mean; for Emax (fold increase): maximal potentiation, mean ± SEM; for EC50: potentiation of 10 μM AMPA-evoked current. The method, then:
(§1) Compounds were tested by bath application.

A further assay relates to Rat AMPA receptors. The assay can be described thus: AMPA-evoked currents, Xenopus laevis oocytes injected with rat cortex poly(A+) mRNA (two-electrode voltage clamp). The conditions noted are these: for EC2X: concentration giving a two-fold increase in current amplitude; for EC2X / EC50: geometric mean; for Emax (fold increase): maximal potentiation, mean ± SEM; for EC50: potentiation of 10 μM AMPA-evoked current. Type of assay: cell-based. The procedure:
as §1

The subject of assay [1] is isolated prefrontal cortex pyramidal neurons. The arrangement: method as in PMID 9221774, PMID 11408529. To be noted: patch-clamp; cited from earlier work. Background: Patch clamp records ionic current or voltage across a cell membrane.
Assay [2] concerns rat primary cortical cell cultures. Put plainly: LDH release toxicity assay on rat primary cortical cell cultures. To be noted: MK801 1 μM; data not shown.
The next assay concerns GluA3flop receptors. Also on record: method as in PMID 9221774, PMID 11408529. The conditions noted are these: Xenopus oocytes; cited from earlier work.
Assay [3] has as its target T1, GluA1flop/GluA2flip AMPA receptors (Homo sapiens, UniProt P42261+P42262, Q607R).
T1 construct: host or cells: Xenopus laevis oocytes
The assay can be described thus: 10 μM glutamate-evoked currents in Xenopus laevis oocytes expressing GluA1flop/GluA2flip (repetitive pulses, GYKI52466). Type of assay: cell-based. To be noted: GYKI52466 10 to 1000 μM; 10 μM glutamate. The method, then: as §1
To test the inhibition, the selective AMPA receptor antagonist GYKI52446 was used from 10 to 1000 μM on the potentiation caused by S 47445 (1 μM).
EC50 were determined either using Matlab (Mathworks inc., Natick, USA) or SAS v9.2 (SAS Institute inc., Cary, USA) softwares. To have a comparative value between the tested drugs when EC50 could not be determined (absence of plateau at high concentrations), the EC2X was determined. EC2X corresponds to the concentrations of the drug responsible for a two-fold increase in the amplitude of the current.

T1 sequence (P42261 19-906): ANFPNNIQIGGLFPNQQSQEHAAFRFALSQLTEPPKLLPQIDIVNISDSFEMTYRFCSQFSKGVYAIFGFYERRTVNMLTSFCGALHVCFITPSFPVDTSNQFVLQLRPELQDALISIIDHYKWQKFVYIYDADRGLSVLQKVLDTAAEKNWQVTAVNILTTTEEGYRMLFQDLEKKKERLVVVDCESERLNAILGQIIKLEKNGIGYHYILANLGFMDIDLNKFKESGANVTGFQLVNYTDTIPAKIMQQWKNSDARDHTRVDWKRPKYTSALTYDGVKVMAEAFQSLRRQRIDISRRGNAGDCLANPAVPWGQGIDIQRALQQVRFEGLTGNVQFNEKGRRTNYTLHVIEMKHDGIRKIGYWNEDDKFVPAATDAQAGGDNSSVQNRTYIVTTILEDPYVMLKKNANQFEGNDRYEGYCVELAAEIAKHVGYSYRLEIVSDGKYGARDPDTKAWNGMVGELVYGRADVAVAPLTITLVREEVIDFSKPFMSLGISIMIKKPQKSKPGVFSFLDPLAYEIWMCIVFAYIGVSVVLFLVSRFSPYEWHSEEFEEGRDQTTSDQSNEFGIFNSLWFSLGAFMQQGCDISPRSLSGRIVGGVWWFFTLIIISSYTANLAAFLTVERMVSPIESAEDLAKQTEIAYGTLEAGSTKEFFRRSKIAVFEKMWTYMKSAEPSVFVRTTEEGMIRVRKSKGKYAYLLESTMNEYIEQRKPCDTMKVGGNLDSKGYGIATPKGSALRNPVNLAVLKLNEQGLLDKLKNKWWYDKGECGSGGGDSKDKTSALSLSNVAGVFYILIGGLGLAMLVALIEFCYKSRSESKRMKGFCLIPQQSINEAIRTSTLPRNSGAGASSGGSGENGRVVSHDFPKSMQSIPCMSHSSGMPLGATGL
T1 sequence (P42262 22-883 isoform P42262-2 Q607R limits assumed): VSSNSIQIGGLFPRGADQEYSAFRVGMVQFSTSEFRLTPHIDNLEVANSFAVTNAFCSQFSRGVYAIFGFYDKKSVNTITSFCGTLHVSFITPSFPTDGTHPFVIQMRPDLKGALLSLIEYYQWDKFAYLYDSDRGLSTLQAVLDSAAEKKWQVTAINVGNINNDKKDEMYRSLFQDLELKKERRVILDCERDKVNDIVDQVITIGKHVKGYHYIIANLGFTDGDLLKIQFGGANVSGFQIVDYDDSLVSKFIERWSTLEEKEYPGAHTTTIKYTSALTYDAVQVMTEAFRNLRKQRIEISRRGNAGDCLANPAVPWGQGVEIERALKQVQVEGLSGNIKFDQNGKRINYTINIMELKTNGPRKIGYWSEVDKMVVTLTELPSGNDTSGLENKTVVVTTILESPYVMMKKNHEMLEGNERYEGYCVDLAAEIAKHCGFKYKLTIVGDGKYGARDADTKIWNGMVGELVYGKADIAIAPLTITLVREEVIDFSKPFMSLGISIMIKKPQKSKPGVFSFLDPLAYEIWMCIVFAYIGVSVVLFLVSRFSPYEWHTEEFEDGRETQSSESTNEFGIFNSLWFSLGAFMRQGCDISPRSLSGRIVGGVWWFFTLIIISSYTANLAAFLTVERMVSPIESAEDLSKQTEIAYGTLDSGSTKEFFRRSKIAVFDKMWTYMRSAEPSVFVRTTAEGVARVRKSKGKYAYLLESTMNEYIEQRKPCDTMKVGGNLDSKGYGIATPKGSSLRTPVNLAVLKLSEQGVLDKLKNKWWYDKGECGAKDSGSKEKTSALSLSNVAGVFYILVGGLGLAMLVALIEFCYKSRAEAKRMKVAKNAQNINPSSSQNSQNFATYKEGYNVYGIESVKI

Consider `CC(CNS(=O)(=O)C(C)C)c1ccc(-c2ccc(C#N)cc2)cc1` (centres unmarked) [LY404187], for which, in the assay on Human AMPA receptors, the EC2X worked out at 0.37 µM, the “Emax (fold increase)” value is on record as 29.67 ± 2.67 fold increase and the EC50 stood at 4.64 µM. In the assay with Rat AMPA receptors, the EC2X was 0.32 µM, the “Emax (fold increase)” value turned out to be 16.40 ± 2.22 fold increase and the EC50 was found to be 3.01 µM.
Take `CC(CNS(=O)(=O)C(C)C)c1ccc(-c2ccsc2)cc1` (centres unmarked) [LY392098]: the “Increase of agonist potency” value in assay [1] is given as “approximately 7 fold”.
Take `CC(C)S(=O)(=O)NC[C@H](C)c1ccc(-c2ccc(CCNS(C)(=O)=O)cc2)cc1` [LY451395]: in the assay on Rat AMPA receptors, the EC2X came out at 0.04 µM, the “Emax (fold increase)” value is on record as 14.03± 0.70 fold increase and the EC50 is 0.37 µM.
In the case of `C[C@]12N[C@H](Cc3ccccc31)c1ccccc12` [MK801, reference compound], the “Effect on 100 μM glutamate-mediated toxicity” value in assay [2] is recorded as “completely reversed”.
For the compound `O=C(c1ccc2nccnc2c1)N1CCCCC1` [CX516], the results for the “Emax (fold increase)” value in the assay with Human AMPA receptors and with Rat AMPA receptors were 3.13 fold increase and 1.72 ± 0.1 fold increase, respectively.
As to `NS(=O)(=O)c1cc2c(cc1Cl)NC(C1CC3C=CC1C3)NS2(=O)=O` (centres unmarked) [Cyclothiazide], in the assay on Human AMPA receptors, the EC2X stood at 1.54 µM, the “Emax (fold increase)” value came out at 9.40 ± 2.61 fold increase and the EC50 turned out to be 9.33 µM. Besides, in the assay on Rat AMPA receptors, the EC2X worked out at 1.68 µM, the “Emax (fold increase)” value turned out to be 8.86 ± 0.79 fold increase and the EC50 is 8.83 µM.
Consider `NC(=O)COc1c(F)cc(SCCNS(=O)(=O)c2ccccc2)cc1F` [PEPA, 4-[2-(Phenylsulfonylamino)ethylthio]-2,6-Difluoro-Phenoxyacetamide], for which the “Increase of agonist potency” value in the assay on GluA3flop receptors was “approximately 7 fold”.
With `CC1=NN=C(c2ccc(N)cc2)c2cc3c(cc2C1)OCO3.Cl.Cl` [GYKI52466, 4-(8-Methyl-9H-1,3-dioxolo[4,5-h][2,3]benzodiazepin-5-yl)-benzenamine dihydrochloride, reference compound], in assay [3], the “Effect on the potentiation caused by S 47445 (1 μM)” value was “concentration-dependently reversed”.
As to `O=C1c2cc3c(cc2OC2CCCN12)OCCO3` (centres unmarked) [CX614], in the assay on Human AMPA receptors, the EC2X was 0.88 µM, the “Emax (fold increase)” value turned out to be 23.43 ± 2.32 fold increase and the EC50 was 11.4 µM. Further, in the assay on Rat AMPA receptors, the EC2X was determined as 1.03 µM, the “Emax (fold increase)” value worked out at 30.32 ± 5.67 fold increase and the EC50 was 17.3 µM.
For the compound `O=S1(=O)N[C@H]2CCCN2c2ccccc21` [S 18986], in the assay with Human AMPA receptors, the EC2X was determined as 16.88 µM and the “Emax (fold increase)” value was determined as 14.51 ± 1.53 fold increase. Further, in the assay with Rat AMPA receptors, the EC2X is 23.77 µM, the “Emax (fold increase)” value came out at 15.37 ± 2.21 fold increase and the EC50 is 125 µM.
